Broadly, the IC50 is the concentration at which inhibition is half-maximal.

Calls of active or inactive are those of the source. The rule behind the calls is not given here.

The record followed here is ChEMBL document CHEMBL1141275, “Sesquiterpenoids from Bombax malabaricum” (J Nat Prod, 2007).

Holding throughout (type): functional, cell-based
For assay [1], the system named is HGC-27. The assay can be described thus: Cytotoxicity against human HGC27 cells by MTT assay. Background: Tetrazolium dyes change colour on reduction, which living cells bring about.
For assay [2], the system named is A549. The assay can be described thus: Cytotoxicity against human A549 cells by MTT assay.
Assay [3] deals with HeLa. The assay can be described thus: Cytotoxicity against human HeLa cells by MTT assay.

As for `COC1=C(C)C(=O)c2c(C(C)C)cc(O)c(C(=O)O)c2C1=O`, the IC50 in assay [1] was > 10 µM.

Regarding `COc1c(O)c(C)cc2c(C(C)C)cc(O)c(C=O)c12`, the IC50 in assay [1] is > 10 µM.

Consider `COc1c(C)cc2c(C(C)C)cc(O)c3c2c1OC3=O`, for which the IC50 in assay [1] was > 10 µM.

On to `COC1=C2OC(=O)c3c(O)cc(C(C)C)c(c32)C(=O)C1(C)O` (stereo not drawn) [BOMBAMALONE A], for which the IC50 in assay [1] is > 10 µM.

`CC1=C2OC(C)(C)c3cc4c(c(c32)C(=O)C1=O)C(C)(O)C=CO4` (stereo not drawn) [BOMBAMALONE B]: the result in assay [2] and in assay [3] was inactive. For the same compound, the IC50 in assay [1] is > 10 µM.

On to `COc1c(O)c(C)cc2c1C(=O)C(=O)C=C2C(C)C` [BOMBAMALONE C], for which, in assay [1], the IC50 was > 10 µM.

`CC1=C2OC(C)(C)c3cc(O[C@@H]4O[C@H](CO)[C@@H](O)[C@H](O)[C@H]4O)c(C(=O)O)c(c32)C(=O)C1=O` [BOMBAMALOSIDE]: the IC50 in assay [1] was > 10 µM.

As to `Cc1cc2c(cc1O)[C@@](C)(O)C(=O)C=C2C(C)C` [LACINILENE C], the IC50 in assay [1] was > 10 µM.

For `CC(=O)O[C@H]1C(=O)[C@@]2(C)[C@H]([C@H](OC(=O)c3ccccc3)[C@]3(O)C[C@H](OC(=O)[C@H](O)[C@@H](NC(=O)c4ccccc4)c4ccccc4)C(C)=C1C3(C)C)[C@]1(OC(C)=O)CO[C@@H]1C[C@@H]2O` [PACLITAXEL], the values for the IC50 in assay [2], in assay [3] and in assay [1] were 0.0126 µM, 0.0056 µM and 0.778 µM, respectively.
